Results reported in patent publication US7772425B2, “Vitamin D receptor modulators” (Eli Lilly and Company, priority 2002, dated 2010).
Where “and” joins values, the source holds several entries; their conditions need not be identical. Equal values may be shown once. Read-outs that look alike come from different tables or passages of the source.

Columns and labels:
[1] = system: rat osteocalcin promoter; assay: OCN (osteocalcin) promoter assay in RG-15 (ROS 17/2.8) cells; format: cell-based; conditions: 48 hr treatment, luciferase
Experimental: 3. The OCN (Osteocalcin) Promoter Assay
The OCN Promoter Assay is an indicator and marker for osteoporosis. […] Preferred assay results are less than 50 nM.
(3) Materials and Method for The OCN Promoter Assay:
The activation of osteocalcin by VDR ligands was evaluated in a rat osteoblast-like cell line RG-15 (ROS 17/2.8) stably expressing rat osteocalcin promoter fused with luciferase reporter gene. […] Confluent RG-15 cells maintained in DMEM/F-12 medium (3:1) containing 5% FBS, 300 μg/ml G418 and at 37° C. under 5% CO2/95% air atmosphere were trypsinized (0.25% trypsin) and plated into white opaque 96-well cell culture plates (25000 cells/well). After 24 hr, cells (in DMEM/F-12 medium+2% FBS) were treated with various concentrations of compounds, dissolved in DMSO. The final DMSO concentration remained at 0.01% (v/v). After 48 hr treatment, the medium was removed, cells were lysed with 50 μl of lysis buffer (From Luciferase reporter assay system, Roche Diagnostics, Indianapolis, Ind.) and assayed for luciferase activity using the Luciferase Reporter Gene Assay kit from Boehringer Mannheim as per manufacturer's specifications.

[2] = system: KERtr cells (Human skin keratinocyte); assay: Keratinocyte proliferation assay; format: cell-based; conditions: BrdU incorporation, read-out: Kera. Prolif. IC50
Experimental: 5. The Keratinocyte Proliferation Assay
This Assay is indicative for the treatment of psoriasis.
(5) The Keratinocyte Proliferation Assay:
KERtr cells (Human skin keratinocyte transformed with a retrovirus vector, obtained from ATCC) were plated in 96-well flat-bottomed plates (3000 cells/well) in 100 μl keratinocyte serum free medium supplemented with bovine pituitary extract in the absence of EGF (Life Technologies, Rockville, Md.) and incubated at 37° C. for two days. The cells were treated with various concentrations of VDR ligands (ten-fold serial dilution from 10,000 nM to 0.1 nM in triplicate), dissolved in 100 μl keratinocyte serum free medium supplemented with bovine pituitary extract in the absence of EGF and incubated at 37° C. for 72 hr. BrdU (5-bromo-2′-deoxyuridine) incorporation was analyzed as a measure of DNA replication (Cell proliferation ELISA kit, Roche Diagnostics, Indianapolis, Ind.) and absorbance was measured at 405 nm. Potency values (IC50) values were determined as the concentration (nM) of compound that elicited a half-maximal response.

[3] = system: female DBF mice; assay: Mouse hypercalcemia assay; format: in vivo; conditions: orally via gavage for 6 days; serum ionized calcium 6 hours after last dosing
Excerpt: 4. The Mouse Hypercalcemia Assay
(4) Materials and Method for The Mouse Hypercalcemia Assay: […]

[4] = Homo sapiens, Keratinocyte, 72 h

SMILES	EC50 ([1]; Rattus norvegicus, 48 h)	EC50 [1]	Mouse Hypercal [3]	also measured
CCC(CC)(c1ccc(C(=O)O)cc1)c1ccc(OCC(O)C(C)(C)C)c(Cl)c1 (racemic) [Ex. 35, 3′-[3-chloro-4-(2-hydroxy-3,3-dimethylbutoxy)phenyl]-3′-[4-carboxyphenyl]pentane]	0.027 µM	–	–	IC50 [2, 4]: 0.04 µM
CCC(CC)(c1ccc(OCC(O)C(C)(C)C)c(Cl)c1)c1ccc(C(=O)O)c(Cl)c1 (single isomer, unassigned) [Ex. 41, 3′-[3-chloro-4-(2-hydroxy-3,3-dimethyl-butoxy)phenyl]-3′-(3-chloro-4-carboxyphenyl)pentane]	–	0.421 µM	–	–
CCC(CC)(c1ccc(OCC(=O)C(C)(C)C)c(C)c1)c1ccc(C(=O)NCCS(C)(=O)=O)c(C)c1 [Ex. 16, 4-{1-[4-(3,3-dimethyl-2-oxobutoxy)-3-methylphenyl]-1-ethylpropyl}-N-(2-methanesulfonylethyl)-2-methylbenzamide]	0.035 µM	–	>5000 µg/kg/day	–
CCC(CC)(c1ccc(OCC(O)C(C)(C)C)c(C)c1)c1ccc(C(=O)OC)c(C)c1 (single isomer, unassigned) [Ex. 4A, 3′-[4-(2-hydroxy-3,3-dimethylbutoxy)-3-methylphenyl]-3′-[4-methoxycarbonyl-3-methylphenyl]pentane]	–	0.003 µM	–	–
CCC(CC)(c1ccc(OCC(O)CO)c(C)c1)c1ccc(OCC(O)C(C)(C)C)c(C)c1 (stereo not drawn) [BB, 3-(4-{1-Ethyl-1-[4-(2-hydroxy-3,3-dimethyl-butoxy)-3-methyl-phenyl]-propyl}-2-methyl-phenoxy)-propane-1,2-diol, reference compound]	–	–	20 µg/kg/day	–
CCC(CC)(c1ccc(/C=C/C(=O)N(C)C)c(C)c1)c1ccc(OCC(O)C(C)(C)C)c(C)c1 (stereo not drawn) [Ex. 9, 3′-[4-(2-hydroxy-3,3-dimethylbutoxy)-3-methylphenyl]-3′-[4-(2-dimethylcarbamoyl-t-ethylidene)-3-methylphenyl]pentane]	0.007 µM	0.006 µM	–	IC50 [2, 4]: 0.985 µM
CCC(CC)(c1ccc(OCC(=O)C(C)(C)C)c(C)c1)c1ccc(OC[C@H](O)C(C)(C)C)c(C)c1 [EE, reference compound]	0.341 µM	–	1000 µg/kg/day	–
CCC(CC)(c1ccc(C(=O)O)c(C)c1)c1ccc(OCC(O)C(C)(C)C)c(Cl)c1 (racemic) [Ex. 38, 3′-[3-chloro-4-(2-hydroxy-3,3-dimethylbutoxy)phenyl]-3′-[3-methyl-4-(carboxy)phenyl]pentane]	0.041 µM	–	–	–
CCC(CC)(c1ccc(CCC(=O)N(C)C)c(C)c1)c1ccc(OCC(=O)C(C)(C)C)c(C)c1 [Ex. 7, 3′-[4-(2-oxo-3,3-dimethylbutoxy)-3-methylphenyl]-3′-[4-(2-dimethylcarbamoylethyl)-3-methylphenyl]pentane]	0.004 µM	–	–	IC50 [2, 4]: 0.018 µM
CCC(CC)(c1ccc(OC[C@@H](O)C(C)(C)C)c(C)c1)c1ccc(C(=O)NCC(=O)O)c(C)c1 (stereo in doubt) [Ex. 24, (4-{1-ethyl-1-[4-(2-hydroxy-3,3-dimethylbutoxy)-3-methylphenyl]-propyl}-2-methylbenzoylamino)acetic acid]	0.0002 µM	–	–	–
CCC(CC)(c1ccc(OCC(O)C(C)(C)C)c(C)c1)c1ccc(C(=O)OC)c(C)c1 (single isomer, unassigned) [Ex. 4B, 3′-[4-(2-hydroxy-3,3-dimethylbutoxy)-3-methylphenyl]-3′-[4-methoxycarbonyl-3-methylphenyl]pentane]	–	0.015 µM	–	–
CCC(CC)(c1ccc(CCC(=O)C(C)(C)C)c(C)c1)c1ccc(C(=O)O)c(C)c1 [Ex. 54, 3′-[4-(3-oxo-4,4-dimethylpentyl)-3-methylphenyl]-3′-[4-carboxyl-3-methylphenyl]pentane]	0.119 µM	–	>3000 µg/kg/day	–
CCC(CC)(c1ccc(OC(C)C(O)C(C)(C)C)c(C)c1)c1ccc(C(=O)N[C@@H](C)C(=O)O)c(C)c1 (stereo partly drawn) [Ex. 49, (L)-2-(4-{1-Ethyl-1-[4-(2-hydroxy-1,3,3-trimethyl-butoxy)-3-methyl-phenyl]-propyl}-2-methyl-benzoylamino)-propionic acid]	–	–	–	IC50 ([2]; 72 hr): 1 µM
CCC(CC)(c1ccc(OCC(O)C(C)(C)C)c(C)c1)c1ccc(C(=O)Nc2nnn[nH]2)c(C)c1 (single isomer, unassigned) [Ex. 27, 3′-[4-(2-hydroxy-3,3-dimethylbutoxy)-3-methylphenyl]-3′-[4-(tetrazol-5-ylaminocarbonyl)-3-methylphenyl]pentane]	–	0.013 µM and 0.023 µM	300 µg/kg/day	–
CCC(CC)(c1ccc(OC(C)C(O)C(C)(C)C)c(C)c1)c1ccc(C(=O)OC)c(C)c1 (single isomer, unassigned) [Ex. 10Da, 3′-[4-(2-hydroxy-1,3,3-trimethylbutoxy)-3-methylphenyl]-3′-[4-methoxycarbonyl-3-methylphenyl]pentane]	–	–	–	IC50 [2, 4]: 1 µM
CCC(CC)(c1ccc(CCC(O)C(C)(C)C)c(C)c1)c1ccc(C(=O)O)c(C)c1 (racemic) [Ex. 55, 3′-[4-(3-hydroxy-4,4-dimethylpentyl)-3-methylphenyl]-3′-[4-carboxyl-3-methylphenyl]pentane]	0.006 µM	–	–	–
CCC(CC)(c1ccc(OCC(O)C(C)(C)C)c(C)c1)c1ccc(C(=O)O)c(C)c1 (single isomer, unassigned) [Ex. 3A]	–	0.015 µM and 0.018 µM	1000 µg/kg/day	–
CCC(CC)(c1ccc(CNCCS(C)(=O)=O)c(C)c1)c1ccc(OCC(=O)C(C)(C)C)c(C)c1 [Ex. 13, 1-[4-(1-ethyl-1-{4-[(2-methanesulfonyl-ethylamino)-methyl]-3-methyl-phenyl}-propyl)-2-methyl-phenoxy]-3,3-dimethyl-butan-2-one]	0.089 µM	0.167 µM	3000 µg/kg/day	–
CCC(CC)(c1ccc(OCC(O)C(C)(C)C)c(Cl)c1)c1ccc(C(=O)O)c(Cl)c1 (single isomer, unassigned) [Ex. 42, 3′-[3-chloro-4-(2-hydroxy-3,3-dimethyl-butoxy)phenyl]-3′-(3-chloro-4-carboxyphenyl)pentane]	–	–	–	IC50 [2, 4]: 0.05 µM
CCC(CC)(c1ccc(OCC(O)C(C)(C)C)c(C)c1)c1ccc(C(=O)O)c(C)c1 (single isomer, unassigned) [Ex. 3B]	–	0.057 µM and 0.083 µM	3000 µg/kg/day	–
CCC(CC)(c1ccc(OC(C)C(O)C(C)(C)C)c(C)c1)c1ccc(C(=O)O)c(C)c1 (single isomer, unassigned) [Ex. 12]	–	0.02 µM and 0.025 µM	4000 µg/kg/day	–
CCC(CC)(c1ccc(OCC(O)C(C)(C)C)c(C)c1)c1ccc(C(=O)NCCS(C)(=O)=O)c(C)c1 (single isomer, unassigned) [Ex. 15B, 4-{1-ethyl-1-[4-(2-hydroxy-3,3-dimethylbutoxy)-3-methylphenyl]propyl}-N-(2-methanesulfonylethyl)-2-methylbenzamide]	–	0.163 µM	–	–
CCC(CC)(c1ccc(OC[C@@H](O)C(C)(C)C)c(C)c1)c1ccc(C(=O)NCCS(C)(=O)=O)c(C)c1 (stereo in doubt) [Ex. 14, 4-{1-ethyl-1-[4-(2-hydroxy-3,3-dimethylbutoxy)-3-methylphenyl]propyl}-N-(2-methanesulfonylethyl)-2-methylbenzamide]	0.306 µM	–	3000 µg/kg/day	–
C=C1/C(=C\C=C2/CCC[C@]3(C)[C@@H]([C@H](C)CCCC(C)(C)O)CC[C@@H]23)C[C@@H](O)C[C@@H]1O [AA, 1α,25-dihydroxyvitamin D3, reference compound]	–	–	0.06 µg/kg/day	–
Cc1cc(C2(c3ccc(OCC(=O)C(C)(C)C)c(C)c3)CCCCC2)ccc1OCC(=O)C(C)(C)C [CC, 1-(4-{1-[4-(3,3-Dimethyl-2-oxo-butoxy)-3-methyl-phenyl]-cyclohexyl}-2-methyl-phenoxy)-3,3-dimethyl-butan-2-one, reference compound]	> 1 µM	–	–	–
CCC(CC)(c1ccc(OCC(O)C(C)(C)C)c(C)c1)c1ccc(C(=O)OC)c(C)c1 (racemic) [Ex. 1, 3′-[4-(2-hydroxy-3,3-dimethylbutoxy)-3-methylphenyl]-3′-[4-methoxycarbonyl-3-methylphenyl]pentane]	0.021 µM	–	–	–
CCC(CC)(c1ccc(OCC(O)C(C)(C)C)c(C)c1)c1ccc(C(=O)Nc2nnn[nH]2)c(C)c1 (single isomer, unassigned) [Ex. 12b, 3′-[4-(2-hydroxy-3,3-dimethylbutoxy)-3-methylphenyl]-3′-[4-(tetrazol-5-ylaminocarbonyl)-3-methylphenyl]pentane]	–	0.013 µM and 0.023 µM	300 µg/kg/day	–
